Series [1] can be described thus: Solubility of FDCA in water as a function of magnesium chloride concentration. Conditions: magnesium chloride solutions in water, stirred 24 h at 21.8° C. and 48.8° C., filtrate analysed by HPLC; values only in FIG. 3. Type of series: physicochemical. How it is done: Magnesium chloride solutions in water were prepared by dissolving magnesium chloride hexahydrate in water. To each solution (30 g) solid FDCA was added and the mixture was stirred for 24 h at 21.8° C. After stirring a sample was taken and filtered by means of a 0.45 micron filter. The clear filtrate was analysed on FDCA content by means of HPLC. The experiment was repeated at 48.8° C.

Series [2] in a line: Saturation concentration of MgFDC solution. Type of series: physicochemical. To be noted: solution at 20° C., as anhydrate. How it is done:
The HCl was added over a period of about 1 hour and the final pH was 1.5. […] The solid FDCA was filtered off and washed with water. The concentration of 4 wt. % was chosen as it is the saturation concentration at 20° C.

This is an account of results in patent publication US10118908B2, “Method for manufacturing furan-2,5-dicarboxylic acid (FDCA) from a solid salt” (PURAC BIOCHEM BV, priority 2015, dated 2018).

As for `O=C(O)c1ccc(C(=O)O)o1` [FDCA, furan-2,5-dicarboxylic acid], in series [1], the “solubility of FDCA” value is “depends strongly on temperature and on the concentration of magnesium chloride”.

As for `O=C([O-])c1ccc(C(=O)[O-])o1.[Mg+2]` [MgFDC, magnesium furan-2,5-dicarboxylate], the saturation concentration in series [2] is on record as 4 wt. %.
